Reference: the NIST ThermoML archive (doi:10.1021/je0504459)
Numbers after ± are expanded uncertainties.

Experiments:
[1] = 101 kPa, Liquid; for speed of sound: Sing-around technique in a fixed-path interferometer
[2] = xn = mol fraction of the nth substance listed; details: 101 kPa, Liquid, x2 = 0; for speed of sound: Sing-around technique in a fixed-path interferometer

Structure (SMILES) | kinematic viscosity ([1]; 303.15 K) | mass density ([1]; 303.15 K) | speed of sound ([1]; 303.15 K) | kinematic viscosity ([1]; 313.15 K) | mass density ([1]; 313.15 K) | speed of sound ([1]; 313.15 K) | speed of sound ([2]; 303.15 K) | kinematic viscosity ([2]; 303.15 K) | mass density ([2]; 303.15 K) | speed of sound ([2]; 313.15 K) | kinematic viscosity ([2]; 313.15 K) | mass density ([2]; 313.15 K)
CCCCCCO [hexan-1-ol] | 4.68e-06 ± 5.6e-08 m2/s | 811.65 ± 0.57 kg/m3 | 1289 ± 3 m/s | 3.63e-06 ± 4.4e-08 m2/s | 804.24 ± 0.6 kg/m3 | 1256 ± 3 m/s |  |  |  |  |  | 
CCCCCCCO [heptan-1-ol] + ClC(Cl)Cl |  |  |  |  |  |  | 1312 ± 3 m/s | 6.19e-06 ± 7.1e-08 m2/s | 814.94 ± 0.57 kg/m3 | 1278 ± 3 m/s | 4.59e-06 ± 5.5e-08 m2/s | 807.77 ± 0.6 kg/m3
CCCCCCCO [heptan-1-ol] | 6.19e-06 ± 7.1e-08 m2/s | 814.94 ± 0.57 kg/m3 | 1312 ± 3 m/s | 4.59e-06 ± 5.5e-08 m2/s | 807.77 ± 0.6 kg/m3 | 1278 ± 3 m/s |  |  |  |  |  | 

Continued, values first:

kinematic viscosity ([1]; 303.15 K) | mass density ([1]; 303.15 K) | speed of sound ([1]; 303.15 K) | kinematic viscosity ([1]; 313.15 K) | mass density ([1]; 313.15 K) | speed of sound ([1]; 313.15 K) | speed of sound ([2]; 303.15 K) | kinematic viscosity ([2]; 303.15 K) | mass density ([2]; 303.15 K) | speed of sound ([2]; 313.15 K) | kinematic viscosity ([2]; 313.15 K) | mass density ([2]; 313.15 K) | Structure (SMILES)
3.63e-07 ± 8e-09 m2/s | 1469.21 ± 1.1 kg/m3 | 969 ± 2 m/s | 3.39e-07 ± 8e-09 m2/s | 1449.74 ± 1.1 kg/m3 | 934 ± 2 m/s |  |  |  |  |  |  | ClC(Cl)Cl [trichloromethane]
 |  |  |  |  |  | 1264 ± 3 m/s | 3.73e-06 ± 4.2e-08 m2/s | 808.6 ± 0.44 kg/m3 | 1228 ± 3 m/s | 2.89e-06 ± 3.3e-08 m2/s | 800.99 ± 0.48 kg/m3 | CCCCCO [pentan-1-ol] + ClC(Cl)Cl
3.73e-06 ± 4.2e-08 m2/s | 808.6 ± 0.44 kg/m3 | 1264 ± 3 m/s | 2.89e-06 ± 3.3e-08 m2/s | 800.99 ± 0.48 kg/m3 | 1228 ± 3 m/s |  |  |  |  |  |  | CCCCCO [pentan-1-ol]
 |  |  |  |  |  | 1289 ± 3 m/s | 4.68e-06 ± 5.6e-08 m2/s | 811.65 ± 0.57 kg/m3 | 1256 ± 3 m/s | 3.63e-06 ± 4.4e-08 m2/s | 804.24 ± 0.6 kg/m3 | CCCCCCO [hexan-1-ol] + ClC(Cl)Cl
